Source: article PMC5288202, “Simultaneous inhibition of Vps34 kinase would enhance PI3Kδ inhibitor cytotoxicity in the B-cell malignancies” (Oncotarget, 2016)
Read-outs that look alike come from different tables or passages of the source.

How the values were obtained:
Format in all cases: cell-based
MV4-11 [1] = assay: Anti-proliferative effect; settings: Homo sapiens, MV4-11; AML (FLT3-ITD)
HT = assay: Anti-proliferative effect; settings: Homo sapiens, B-cell lymphoma, read-out: GI50 HT
MEC-2 [2] = assay: Anti-proliferative effect
HL-60 = assay: Anti-proliferative effect; settings: Homo sapiens, HL-60; AML (FLT3 wt); read-out: GI50 HL-60
OCI-AML-3 = assay: Anti-proliferative effect; settings: Homo sapiens, AML(FLT3wt)
MEC-1 = assay: Anti-proliferative effect; settings: Homo sapiens, MEC1; CLL
OCI-AML-2 [3] = assay: Anti-proliferative effect; settings: Homo sapiens, OCI-AML2; AML(FLT3wt); read-out: GI50 OCI-AML-2
Hs 505T = assay: Anti-proliferative effect; settings: Homo sapiens; CLL; read-out: GI50 Hs 505T
SKM-1 = assay: Anti-proliferative effect; settings: Homo sapiens, SKM-1; AML(FLT3wt); read-out: GI50 SKM-1
Ramos = assay: Anti-proliferative effect; settings: Homo sapiens, Burrkit lymphoma, read-out: GI50 Ramos
NOMO-1 = assay: Anti-proliferative effect; settings: Homo sapiens, NOMO-1; AML (FLT3wt); read-out: GI50 NOMO-1
MOLM-13 = assay: Anti-proliferative effect; settings: Homo sapiens, AML(FLT3-ITD)
Namalwa [4] = assay: Anti-proliferative effect; settings: Burrkit lymphoma; read-out: GI50 Namalwa
CMK = assay: Anti-proliferative effect; settings: Homo sapiens, read-out: GI50 CMK
HEL = assay: Anti-proliferative effect; settings: Homo sapiens, AML(FLT3wt), read-out: GI50 HEL
U937 = assay: Anti-proliferative effect; settings: Homo sapiens, U-937; AML(FLT3wt); read-out: GI50 U937
NB4 = assay: Anti-proliferative effect; settings: Homo sapiens; AML-3 (FLT3wt); read-out: GI50 NB4
pERK in MEC-2 cells = assay: pERK immunoblotting
Excerpt: The following antibodies were purchased from Cell Signaling Technology: Akt(#4691), Phospho-Akt(Thr308)(#4056), Phospho-Akt(Ser473)(#4060), GAPDH, GSK-3β(#9315), Phospho-GSK-3β(#9323), FoxO1(#2880), Phospho-FoxO1 (Thr24)/FoxO3a(Thr32)/FoxO4(Thr28)(#2599), PRAS40(#2691), Phospho-PRAS40 (Thr246)(#2997), 4E-BP1(#9644), p70 S6K(#2708), Phospho-p70 S6K (Thr389)(#9234). SQSTM1/p62 (D5E2)(#8025), LC3B(#12513). PARP(#9532), Caspase-3(#9665), Phospho-p44/42 MAPK (Erk1/2) (Thr202/Tyr204)(#4377), p44/42 MAPK (Erk1/2) (#4695), Phospho-NF-ΚB P65 (Ser 536)(#3033), NF-ΚB P65(#4764). Lysophosphatidic Acid (#sc-201053, Santa Cruz), Recombinant Human PDGF-BB (#220-BB, R&D), Recombinant Human C5a (Peprotech, #300-70), goat anti-IgM (#5C07615, Meridian). LC3B antibody (#3868, CST). Tubulin antibody (#8035, Santa Cruz). EEA1 antibody (#610456, BD Bioscience) and LAMP1 antibody (#24170, Abcam). Secondary antibodies, Alexa488-anti-mouse, Alexa594-anti-rabbit and Prolong gold mounting medium with DAPI were purchased from Invitrogen.

MOLM-14 = assay: Anti-proliferative effect; settings: Homo sapiens, MOLM-14; AML (FLT3-ITD)
Namalwa [5] = assay: Drug combination study (CellTiter-Glo, 72 hours); settings: VPS34-IN-1 3.3 μM, normalized to DMSO, read-out: Relative activity(%) (Namalwa)
Method: (§1) A combination of the PI3K kinase inhibitor CAL101 with the VPS34 inhibitor VPS34-IN-1, was used to treat the cell lines. Cell proliferation were determined after treatment with the compounds for 72 hours. Cell viability was measured using the CellTiter–Glo assay (Promega, USA), data were normalized to control groups (DMSO) and represented by the mean of three independent measurements with a standard error <20%.

OCI-AML-2 [6] = assay: Drug combination study (CellTiter-Glo, 72 hours); settings: Homo sapiens, OCI-AML2, VPS34-IN-1 1.1 μM, normalized to DMSO, read-out: Relative activity(%) (OCI-AML-2)
Method: as §1

MV4-11 [7] = assay: Drug combination study (CellTiter-Glo, 72 hours); settings: Homo sapiens, VPS34-IN-1 3.3 μM, normalized to DMSO, read-out: Relative activity(%) (MV4-11)
Method: as §1

MEC-2 [8] = assay: Drug combination study (CellTiter-Glo, 72 hours); settings: MEC2, 72 h, read-out: Relative activity(%) (MEC-2)
Method: as §1

[9] = test system: LAMP1 localization in HeLa cells; assay: Immunofluorescence of LAMP1 localization
Method: (§2) HeLa cells were treated with different concentrations of inhibitors for 16 hours. For all immunofluorescence experiments, cells were fixed in -20 °C methanol for 5 minutes or 3.7% (v/v) formaldehyde in phosphate-buffered saline (PBS) for 20 minutes. For LC3B staining, cells were fixed in -20 °C methanol. For EEA1 and LAMP1 staining, cells were fixed in PBS+ formaldehyde. Cells were then permeabilized with TBSTx (0.1% Triton X-100), blocked in AbDil (TBSTx + 2% BSA + 0.1% NaN3), and probed with primary and secondary antibodies diluted in AbDil. Cells were rinsed thoroughly with TBSTx and mounted by anti-fade prolong Gold with DAPI. Images were taken using a Leica DMI4000B fluorescent microscope. All experiments were repeated at least three times). […] Cells were lysed in lysis buffer. P62, LC3B, and GAPDH antibodies were used for immunoblotting.

[10] = test system: LC3B puncta in HeLa cells; assay: Immunofluorescence of LC3B puncta; settings: 16 hours
Method: as §2

`CC[C@H](Nc1ncnc2[nH]cnc12)c1nc2cccc(F)c2c(=O)n1-c1ccccc1` [CAL-101] was tested, and the GI50 (MV4-11 [1]) was greater than 10 µM, the GI50 (HT) was greater than 10 µM and the GI50 (MEC-2 [2]; MEC2, CLL, read-out: GI50 MEC-2) was greater than 10 µM. The GI50 (HL-60) was greater than 10 µM, the GI50 (OCI-AML-3) was 2.4 µM and the GI50 (MEC-1) was greater than 10 µM. It also gave a GI50 (OCI-AML-2 [3]) greater than 10 µM, a GI50 (Hs 505T) greater than 10 µM and a GI50 (SKM-1) greater than 10 µM. For the same compound, the GI50 (Ramos) was greater than 10 µM, the GI50 (NOMO-1) was greater than 10 µM and the GI50 (MOLM-13) was greater than 10 µM. For the same compound, the GI50 (Namalwa [4]) was greater than 10 µM, the GI50 (CMK; AML(FLT3wt)) was greater than 10 µM and the GI50 (HEL) was greater than 10 µM. For the same compound, the GI50 (U937) was greater than 10 µM, the GI50 (NB4) was greater than 10 µM and the “effect on pERK” value (pERK in MEC-2 cells) was “significantly inhibited”. For the same compound, the GI50 (MOLM-14) was 7.8 µM.
For `CS(=O)(=O)N1CCN(Cc2cc3nc(-c4cccc5[nH]ncc45)nc(N4CCOCC4)c3s2)CC1` [GDC-0941], the GI50 (MV4-11 [1]) was 1.4 µM, the GI50 (HT) was 0.5 µM and the GI50 (HL-60) was 0.16 µM. For the same compound, the GI50 (OCI-AML-3) was 0.73 µM, the GI50 (OCI-AML-2 [3]) was 2 µM and the GI50 (SKM-1) was 0.3 µM. It also gave a GI50 (Ramos) of 2.1 µM, a GI50 (NOMO-1) of 1 µM and a GI50 (MOLM-13) of 0.15 µM. It also gave a GI50 (Namalwa [4]) of 0.39 µM, a GI50 (CMK; AML(FLT3wt)) of 0.3 µM and a GI50 (HEL) greater than 10 µM. The GI50 (U937) was 1.6 µM, the GI50 (NB4) was 1 µM and the “effect on pERK” value (pERK in MEC-2 cells) was “significantly inhibited”. It also gave a GI50 (MOLM-14) of 0.3 µM.
Work on `CC(C)(O)CNc1ncc(-c2ccnc(Nc3ccnc(Cl)c3)n2)c(CC2CC2)n1` [VPS34-IN-1] yielded a GI50 (MV4-11 [1]) of 2.4 µM, a GI50 (HT) of 1.4 µM and a GI50 (MEC-2 [2]; MEC2, read-out: GI50 MEC-2) of 3.1 µM. It also gave a GI50 (HL-60) of 0.51 µM, a GI50 (OCI-AML-3) of 3.6 µM and a GI50 (MEC-1) of 3.7 µM. It also gave a GI50 (OCI-AML-2 [3]) of 6.6 µM, a GI50 (Hs 505T) of 3 µM and a GI50 (SKM-1) of 6.4 µM. It also gave a GI50 (Ramos) of 3.3 µM, a GI50 (NOMO-1) of 1.8 µM and a GI50 (MOLM-13) of 0.7 µM. It also gave an activity at 3.3 µM (Namalwa [5]) of 77.8%, an activity at 1.1 µM (OCI-AML-2 [6]) of 82.8% and an activity at 3.3 µM (MV4-11 [7]) of 43.6%. It also gave an activity at 10 µM (MEC-2 [8]) of 30.4%, a GI50 (Namalwa [4]) of 8.1 µM and a GI50 (CMK) of 5.9 µM. For the same compound, the “Effect on lysosome marker LAMP1 localization” value [9] was “affected”, the GI50 (HEL) was 1.7 µM and the GI50 (U937) was 2.1 µM. For the same compound, the GI50 (NB4) was 6.4 µM, the GI50 (MOLM-14) was 7.8 µM and the “Effect on LC3B puncta” value [10] was “increased LC3B puncta”.
